Bounds are passed on as bounds.

This assay concerns SK-BR-3 cancer cells. The assay is described as follows: Inhibitory activity against proliferation of SK-BR-3 cancer cells (CellTiter-Glo). It counts as cell-based. The note with it: Homo sapiens, SK-BR-3, 120 h, ErbB2-overexpressing SK-BR-3 cells, 120 hours after treatment. The method, then: To evaluate the inhibitory activity of a compound according to the present invention against the proliferation of ErbB2-overexpressing cancer cells, the following experiment were performed.
10% FBS-added McCOY'S 5A was used for SK-BR-3 cancer cells. 20% FBS-added RPMI-1640 was used for BT-474 cancer cells. Transduced Ba/F3 cells were cultured in a RPMI-1640 medium to which 1 μg/ml puromycin (Invitrogen) was added.
48 hours before compound treatment, each type of the SK-BR-3 and BT-474 cells were seeded at 5,000 cells/well in a white clear bottom 96 well plate (Corning). The compound was diluted in dimethyl sulfoxide (SK-BR-3: 3-fold dilution, a total of 12 concentrations, BT-474: […], a total of 12 concentrations) and injected at 1 μl to have the final concentration of 0.2 nM to 5 μM. As for measurement of live cells, 120 hours after treatment with the compound, a CellTiter-Glo luminescent cell-viability reagent (Promega) was used to store the cells at room temperature for 10 minutes, followed by measurement of luminescence using a reader (SynergyNeo, Biotek). Each test was repeated three times.
The result values were calculated as a cell growth rate (%) compared to the control group. A graph was plotted using the GraphPad Prism version 8.3.0 program, and GI50 values were calculated.

In general, GI50 refers to the concentration at which growth is held to half of that of the control. Regarding `C=CC(=O)Nc1cc(Nc2cc(N3OCC[C@@H]3c3cc(F)cc(-c4cccs4)c3)ncn2)c(OC)cc1N(C)CCN(C)C` [Example 243, (R)-N-(2-((2-(dimethylamino)-ethyl)(methyl)-amino)-5-((6-(3-(3-fluoro-5-(thio-phen-2-yl)phenyl)-isoxazolidin-2-yl)-pyrimidin-4-yl)-amino)-4-methoxy-phenyl)acrylamide], the GI50 was < 50 nM.
The result for `C=CC(=O)Nc1cc(Nc2cc(N3OCC[C@@H]3c3ccc(F)c(OCc4cccc(F)c4)c3)ncn2)c(OC)cc1N1CCN(C)CC1` [Example 244, (R)-N-(5-((6-(3-(4-fluoro-3-((3-fluorobenzyl)oxy)-phenyl)isoxazol-idin-2-yl)pyrim-idin-4-yl)amino)-4-methoxy-2-(4-methylpiperazin-1-yl)phenyl)-acrylamide] reads < 50 nM; that for `C=CC(=O)Nc1cc(Nc2cc(N3OCC[C@@H]3c3cccc(C(=O)NC(C)C)c3)ncn2)c(OC)cc1N1CCN(C)CC1` [Example 246, (R)-3-(2-(6-((5-acrylamido-2-methoxy-4-(4-methylpiperazin-1-yl)phenyl)-amino)pyrimidin-4-yl)isoxazolidin-3-yl)-N-isopropyl-benzamide], < 50 nM.
The result for `C=CC(=O)Nc1cc(Nc2cc(N3OCC[C@@H]3c3cccc(C(=O)NC(C)C)c3)ncn2)c(OC)cc1N(C)CCN(C)C` [Example 247, (R)-3-(2-(6-((5-acrylamido-4-((2-(dimethylamino)-ethyl)(methyl)-amino)-2-methoxy-phenyl)amino)pyr-imidin-4-yl)isox-azolidin-3-yl)-N-isopropylbenzamide] reads < 50 nM; that for `C=CC(=O)Nc1cc(Nc2cc(N3OCCC3c3cccc(-c4cc(F)cc(F)c4)c3)ncn2)c(OC)cc1N1CCC(N2CCN(C3CC3)CC2)CC1` (stereo not shown) [Example 249, N-(2-(4-(4-cyclo-propylpiperazin-1-yl)piperidin-1-yl)-5-((6-(3-(3′,5′-difluoro-[1,1′-biphenyl]-3-yl)-isoxazolidin-2-yl)-pyrimidin-4-yl)-amino)-4-methoxy-phenyl)acrylamide], 50 to 500 nM; that for `C=CC(=O)Nc1cc(Nc2cc(N3OCCC3c3cccc(-c4cccc(C#N)c4)c3)ncn2)c(OC)cc1N1CCC(N2CCN(C3CC3)CC2)CC1` (stereo not shown) [Example 250, N-(5-((6-(3-(3′-cyano-[1,1′-biphen-yl]-3-yl)isoxazol-idin-2-yl)pyrim-idin-4-yl)amino)-2-(4-(4-cycloprop-ylpiperazin-1-yl)-piperidin-1-yl)-4-methoxyphenyl)-acrylamide], < 50 nM.
In the case of `C=CC(=O)Nc1cc(Nc2cc(N3OCC[C@H]3c3cccc(-c4cccc(F)c4)c3F)ncn2)c(OC)cc1N1CCC(N2CCN(C3CC3)CC2)CC1` [Example 251, (S)-N-(2-(4-(4-cyclopropylpiper-azin-1-yl)piper-idin-1-yl)-5-((6-(3-(2,3′-difluoro-[1,1′-biphenyl]-3-yl)-isoxazolidin-2-yl)-pyrimidin-4-yl)-amino)-4-methoxy-phenyl)acrylamide], the GI50 was 500 to 5000 nM.
Take `C=CC(=O)Nc1cc(Nc2cc(N3OCC[C@@H]3c3cccc(-c4cccc(F)c4)c3F)ncn2)c(OC)cc1N1CCC(N2CCN(C3CC3)CC2)CC1` [Example 252, (R)-N-(2-(4-(4-cyclopropylpiper-azin-1-yl)piper-idin-1-yl)-5-((6-(3-(2,3′-difluoro-[1,1′-biphenyl]-3-yl)isoxazolidin-2-yl)pyrimidin-4-yl)-amino)-4-methoxy-phenyl)acrylamide]: the concentration for 50% growth inhibition (GI50) was < 50 nM.
The value for `C=CC(=O)Nc1cc(Nc2cc(N3OCC[C@@H]3c3cccc(C(=O)NC4CCCCC4)c3)ncn2)c(OC)cc1N1CCC(N2CCN(C3CC3)CC2)CC1` [Example 254, (R)-3-(2-(6-((5-acrylamido-4-(4-(4-cyclopropyl-piperazin-1-yl)-piperidin-1-yl)-2-methoxyphenyl)-amino)pyrimidin-4-yl)isoxazolidin-3-yl)-N-cyclohex-ylbenzamide] was < 50 nM; that for `COc1cc(F)c(NC(=O)/C=C/CN(C)C)cc1Nc1cc(N2OCC[C@@H]2c2ccc(F)c(OCc3cccc(F)c3)c2)ncn1` [Example 255, (R,E)-4-(dimethyl-amino)-N-(2-fluoro-5-((6-(3-(4-fluoro-3-((3-fluorobenzyl)oxy)-phenyl)isoxazol-idin-2-yl)pyrim-idin-4-yl)amino)-4-methoxyphen-yl)but-2-enamide] was 50 to 500 nM; that for `C=CC(=O)Nc1cc(Nc2cc(N3OCC[C@@H]3c3ccc(C)c(OCc4cccc(F)c4)c3)ncn2)c(OC)cc1N1CCN(C)CC1` [Example 256, (R)-N-(5-((6-(3-(3-((3-fluorobenz-yl)oxy)-4-methyl-phenyl)isoxazol-idin-2-yl)pyrim-idin-4-yl)amino)-4-methoxy-2-(4-methylpiperazin-1-yl)phenyl)-acrylamide] was 50 to 500 nM.
Consider `C=CC(=O)Nc1cc(Nc2cc(N3OCC[C@@H]3c3ccc(C)c(OCc4cccc(F)c4)c3)ncn2)c(OC)cc1N(C)CCN(C)C` [Example 257, (R)-N-(2-((2-(dimethylamino)-ethyl)(methyl)-amino)-5-((6-(3-(3-((3-fluorobenz-yl)oxy)-4-methyl-phenyl)isoxazol-idin-2-yl)pyrim-idin-4-yl)amino)-4-methoxyphen-yl)acrylamide], for which the GI50 was < 50 nM.
The value for `C=CC(=O)Nc1cc(Nc2cc(N3OCC[C@@H]3c3ccc(C)c(OCc4cccc(F)c4)c3)ncn2)c(OC)cc1F` [Example 258, (R)-N-(2-fluoro-5-((6-(3-(3-((3-fluorobenzyl)oxy)-4-methylphenyl)-isoxazolidin-2-yl)-pyrimidin-4-yl)-amino)-4-methoxy-phenyl)acrylamide] was 500 to 5000 nM.
The result for `C=CC(=O)Nc1cc(Nc2cc(N3OCC[C@@H]3c3ccc(F)c(Oc4cccc(C(F)(F)F)c4)c3)ncn2)c(OC)cc1N1CCN(C)CC1` [Example 259, (R)-N-(5-((6-(3-(4-fluoro-3-(3-(trifluoromethyl)-phenoxy)phenyl)-isoxazolidin-2-yl)-pyrimidin-4-yl)-amino)-4-meth-oxy-2-(4-methyl-piperazin-1-yl)-phenyl)acrylamide] reads 50 to 500 nM.
The result for `C=CC(=O)Nc1cc(Nc2cc(N3OCC[C@@H]3c3ccc(F)c(Oc4cccc(C(F)(F)F)c4)c3)ncn2)c(OC)cc1N(C)CCN(C)C` [Example 260, (R)-N-(2-((2-(dimethylamino)-ethyl)(methyl)-amino)-5-((6-(3-(4-fluoro-3-(3-(trifluoromethyl)-phenoxy)phenyl)-isoxazolidin-2-yl)-pyrimidin-4-yl)-amino)-4-methoxy-phenyl)acrylamide] reads 50 to 500 nM.
As for `C=CC(=O)Nc1cc(Nc2cc(N3OCCC3c3cccc(-c4cccc(F)c4)c3)ncn2)c(OC)cc1N(C)CCN(C)C` (stereo not shown) [Example 261, N-(2-((2-(dimeth-ylamino)ethyl)-(methyl)amino)-5-((6-(3-(3′-fluoro-[1,1′-biphenyl]-3-yl)isoxazolidin-2-yl)pyrimidin-4-yl)-amino)-4-methoxy-phenyl)acrylamide], the GI50 is < 50 nM.
The value for `C=CC(=O)Nc1cc(Nc2cc(N3OCC[C@@H]3c3cccc(-c4cnc5ccnn5c4)c3)ncn2)c(OC)cc1N1CCN(C)CC1` [Example 262, (R)-N-(4-methoxy-2-(4-methylpiper-azin-1-yl)-5-((6-(3-(3-(pyrazolo[1,5-a]pyrimidin-6-yl)-phenyl)isoxazol-idin-2-yl)pyrim-idin-4-yl)amino)-phenyl)acrylamide] was < 50 nM.
With `C=CC(=O)Nc1cc(Nc2cc(N3OCC[C@@H]3c3cccc(-c4cnc5ccnn5c4)c3)ncn2)c(OC)cc1N(C)CCN(C)C` [Example 263, (R)-N-(2-((2-(dimethylamino)-ethyl)(methyl)-amino)-4-methoxy-5-((6-(3-(3-(pyr-azolo[1,5-a]pyrim-idin-6-yl)phenyl)-isoxazolidin-2-yl)-pyrimidin-4-yl)-amino)phenyl)-acrylamide], the concentration for 50% growth inhibition (GI50) was < 50 nM.
Take `C=CC(=O)Nc1cc(Nc2cc(N3OCC[C@@H]3c3cccc(-c4cnc5ccnn5c4)c3)ncn2)c(OC)cc1N1CCOCC1` [Example 264, (R)-N-(4-methoxy-2-morpholino-5-((6-(3-(3-(pyraz-olo[1,5-a]pyrim-idin-6-yl)phenyl)-isoxazolidin-2-yl)-pyrimidin-4-yl)-amino)phenyl)-acrylamide]: the GI50 was < 50 nM.
For `C=CC(=O)Nc1cc(Nc2cc(N3OCC[C@@H]3c3cccc(-c4ccc5ncnn5c4)c3)ncn2)c(OC)cc1N1CCN(C)CC1` [Example 266, (R)-N-(5-((6-(3-(3-([1,2,4]triazolo-[1,5-a]pyridin-6-yl)phenyl)isoxazol-idin-2-yl)pyrim-idin-4-yl)amino)-4-methoxy-2-(4-methylpiperazin-1-yl)phenyl)acryl-amide], the GI50 is < 50 nM.
The value for `C=CC(=O)Nc1cc(Nc2cc(N3OCCC3c3cccc(-c4cc(F)cc(F)c4)c3)ncn2)c(OC)cc1N1CCN(C)CC1` (stereo not shown) [Example 267, N-(5-((6-(3-(3′,5′-difluoro-[1,1′-biphenyl]-3-yl)-isoxazolidin-2-yl)-pyrimidin-4-yl)-amino)-4-methoxy-2-(4-methylpiper-azin-1-yl)phenyl)-acrylamide] was < 50 nM.
Regarding `C=CC(=O)Nc1cc(Nc2cc(N3OCC[C@@H]3c3cccc(-c4ccn5ncnc5c4)c3)ncn2)c(OC)cc1N1CCN(C)CC1` [Example 268, (R)-N-(5-((6-(3-(3-([1,2,4]triazolo-[1,5-a]pyridin-7-yl)phenyl)isoxazol-idin-2-yl)pyrim-idin-4-yl)amino)-4-methoxy-2-(4-methylpiperazin-1-yl)phenyl)-acrylamide], the GI50 was < 50 nM.
